Results as given in US9486405B2, “Methods for the treatment of pediatric otic disorders” (Otonomy, Inc., priority 2013, dated 2016).

Tests used:
[1] = Middle ear histology, one-month acute ototoxicity study; assay type: in vivo, guinea pig; details: at termination; Composition A 2% and 6% single IT-ANT; drops twice daily for 7 days; gentamicin single IT-ANT
Description: (§1) At termination, functional and anatomic assessments of the middle and inner ear compartments were conducted.
Histological analysis of middle ear paraffin sections was conducted at termination.
Middle ear histology—Guinea pigs received vascular perfusion through the heart with an isotonic saline solution followed by fixative containing 4% paraformaldehyde (PFA) in phosphate buffer. Left and right temporal bones were removed and trimmed. Left ear cochleae were designated for inner ear assessment and the right ear cochleae for middle ear histology. Cochleae of the left ear were fixed by intrascalar perfusion of 4% PFA. The temporal bones were then placed in 4% PFA for approximately 1 hour and transferred to a vial containing 0.5% PFA in phosphate buffer. The right temporal bones were trimmed, and then each was placed in a cassette containing 5% EDTA in phosphate buffer. The cassettes were placed into a PELCO 3451 Microwave System, running constantly for 3-5 days. Ears were then dehydrated in EtOH and processed in JB-4 Glycol Methacrylate resin, placed into molds containing the resin and polymerized at ˜4° C. for ˜12 h. Blocks containing temporal bones were trimmed and 5 μm sections were cut with a Leica RM2165 Microtome and stained with Paragon stain. Sections were examined under bright field optics. Middle ear sections were assessed for tissue reaction and inflammatory response. […]

[2] = system: inner and outer hair cells; assay: Inner ear cytocochleogram, one-month acute ototoxicity study; assay type: in vivo, guinea pig; details: at termination; 2% and 6% single IT-ANT; drops twice daily for 7 days; gentamicin single IT-ANT
Description: as §1
Inner ear cytocochleogram—The left ear cochleae were carefully removed from the temporal bones and then further dissected, first removing the bony otic capsule, followed by removal of lateral wall tissues, including spiral ligament and stria vascularis. The tectorial membrane was then removed and the cochleae placed in a solution of rhodamine labeled phalloidin, diluted 1:100 in phosphate buffered saline (PBS), for 30-120 min, in the dark, followed by two washes in PBS. The cochlear sensory neural epithelium was then dissected away from the modiolus, starting at the apex, to produce surface preparations of the cochlear spiral. Each segment was mapped for location and placed on a slide. A quantitative assessment of presence or absence of hair cells was then carried out, beginning at apex and proceeding to the base, to produce a cytocochleogram, with presence or absence or hair cells mapped by position along the cochlear spiral.

Substance: gentamicin
- middle ear histology finding [1]: moderate chronic inflammation
- hair cell loss (cytocochleogram) [2]: profound to complete hair cell loss
